# Where “and” joins values, the source holds several entries; their conditions need not be identical. Equal entries are not always repeated. Toxic doses and inconclusive results are not listed.
# System: CD2F1 mice, L1210 leukemia ip, survival T/C
# Test: NCI In Vivo Anticancer Drug Screen. Data for tumor model L1210 Leukemia (intraperitoneal) in CD2F1 (CDF1) mice
# Conditions: endpoint: mean survival time, higher = longer survival
# Procedure, shortened: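 Read-out first: treated-group measurement over vehicle-control measurement, expressed as a ratio. Animals bore a transplanted tumor line and were dosed with compound or vehicle.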
# [1] = dose: 100.0 mg/kg/injection, schedule: Q04DX003 (ip), vehicle: saline with Tween-80
# [2] = dose: 200.0 mg/kg/injection, schedule: Q04DX003 (ip), vehicle: saline with Tween-80
# [3] = dose: 400.0 mg/kg/injection, schedule: Q04DX003 (ip), vehicle: saline with Tween-80
# [4] = dose: 3.13 mg/kg/injection, schedule: Q01DX009 (ip), vehicle: saline with Tween-80
# [5] = dose: 6.25 mg/kg/injection, schedule: Q01DX009 (ip), vehicle: saline with Tween-80
# [6] = dose: 12.5 mg/kg/injection, schedule: Q01DX009 (ip), vehicle: saline with Tween-80
# [7] = dose: 100.0 mg/kg/injection, schedule: Q01DX001 (ip), vehicle: saline
# [8] = dose: 200.0 mg/kg/injection, schedule: Q01DX001 (ip), vehicle: saline
# [9] = dose: 400.0 mg/kg/injection, schedule: Q01DX001 (ip), vehicle: saline
# [10] = dose: 100.0 mg/kg/injection, schedule: Q01DX009 (ip), vehicle: saline with Tween-80
# [11] = dose: 400.0 mg/kg/injection, schedule: Q01DX009 (ip), vehicle: saline with Tween-80
# [12] = dose: 50.0 mg/kg/injection, schedule: Q01DX009 (ip), vehicle: saline with Tween-80
# [13] = dose: 50.0 mg/kg/injection, schedule: Q01DX009 (ip), vehicle: saline
# [14] = dose: 100.0 mg/kg/injection, schedule: Q01DX001 (ip), vehicle: saline with Tween-80
# [15] = dose: 100.0 mg/kg/injection, schedule: Q01DX009 (ip), vehicle: saline
# [16] = dose: 200.0 mg/kg/injection, schedule: Q01DX001 (ip), vehicle: saline with Tween-80
# [17] = dose: 400.0 mg/kg/injection, schedule: Q01DX001 (ip), vehicle: saline with Tween-80
# [18] = dose: 25.0 mg/kg/injection, schedule: Q01DX009 (ip), vehicle: saline with Tween-80
smiles,measurement,setting,value
O=C(COc1cccc(Cl)c1)NCc1ccccc1,T/C,[1],99 % of control
same,T/C,[2],96 % of control
same,T/C,[3],99 % of control
c1ccc(-c2cc(-c3ccccc3)[o+]c(-c3ccccc3)c2)cc1,T/C,[4],100 % of control
same,T/C,"dose: 3.13 mg/kg/injection, schedule: Q04DX003 (ip), vehicle: saline",101 % of control
same,T/C,[5],100 % of control
same,T/C,"dose: 6.25 mg/kg/injection, schedule: Q04DX003 (ip), vehicle: saline",98 % of control
same,T/C,[6],97 % of control
same,T/C,"dose: 12.5 mg/kg/injection, schedule: Q04DX003 (ip), vehicle: saline",104 % of control
same,T/C,[1],95 % of control
O=c1nc2n(CCO)c3ccccc3cc-2c(=O)[nH]1,T/C,[7],95 % of control
same,T/C,[8],95 % of control
same,T/C,[9],89 % of control
O=C(O)c1ccc([As](=O)(O)O)cc1,T/C,"dose: 6.25 mg/kg/injection, schedule: Q01DX009 (ip), vehicle: Klucel (hydroxypropylcellulose) (HPC)",102 % of control
same,T/C,"dose: 12.5 mg/kg/injection, schedule: Q01DX009 (ip), vehicle: Klucel (hydroxypropylcellulose) (HPC)",98 % of control
same,T/C,"dose: 25.0 mg/kg/injection, schedule: Q01DX009 (ip), vehicle: Klucel (hydroxypropylcellulose) (HPC)",87 % of control and 92 % of control
O=C(O)CSC1=NCCN1 (tested in a mixture with another compound),T/C,[7],90 % of control
same,T/C,[8],93 % of control
same,T/C,[9],93 % of control
CC1(C)C/C(=C\c2cc(O)ccc2[N+](=O)[O-])C(=O)c2ccccc21,T/C,[10],97 % of control
same,T/C,[1],101 % of control
same,T/C,"dose: 200.0 mg/kg/injection, schedule: Q01DX009 (ip), vehicle: saline with Tween-80",94 % of control
same,T/C,[2],106 % of control
same,T/C,[11],97 % of control
same,T/C,[3],103 % of control
C[C@H](C[P+](c1ccccc1)(c1ccccc1)c1ccccc1)[C@](OC(=O)c1ccccc1)(C(=O)c1ccccc1)c1ccccc1,T/C,"dose: 1.25 mg/kg/injection, schedule: Q01DX009 (ip), vehicle: saline with Tween-80",101 % of control
same,T/C,"dose: 2.5 mg/kg/injection, schedule: Q01DX009 (ip), vehicle: saline with Tween-80",98 % of control
same,T/C,"dose: 5.0 mg/kg/injection, schedule: Q01DX001 (ip), vehicle: saline with Tween-80",103 % of control
same,T/C,"dose: 5.0 mg/kg/injection, schedule: Q01DX009 (ip), vehicle: saline with Tween-80",98 % of control
OC(CBr)C(O)CBr (stereo not drawn),T/C,[12],108 % of control
same,T/C,[13],108 % of control
same,T/C,[14],102 % of control
same,T/C,[10],106 % of control
same,T/C,[15],108 % of control
same,T/C,[1],102 % of control
same,T/C,[16],109 % of control
same,T/C,[2],86 % of control
CC(C)c1ccc(N=Nc2ccc(C(C)C)cc2)cc1,T/C,[7],101 % of control
same,T/C,[8],97 % of control
same,T/C,[9],93 % of control
CS(=O)(=O)OCCCN(CCCOS(C)(=O)=O)c1ccc(C=Nc2ccc(-c3csc(COc4ccc(Br)cc4)n3)cc2)cc1,T/C,[14],94 % of control
same,T/C,[16],89 % of control
same,T/C,[17],88 % of control
COc1ccc(/C=N/NC(=O)CNC(=O)c2ccccc2)cc1,T/C,[10],92 % of control
same,T/C,[11],88 % of control
C=CC[As](=O)(O)CCC,T/C,"dose: 25.0 mg/kg/injection, schedule: Q01DX009 (ip), vehicle: saline",100 % of control
same,T/C,[13],98 % of control
same,T/C,[10],114 % of control
same,T/C,[15],97 % of control
O=S1(=O)Cc2c(Br)c(Br)c(Br)c(Br)c2C1,T/C,[6],90 % of control
same,T/C,[18],88 % of control
same,T/C,[12],86 % of control
same,T/C,[1],101 % of control
same,T/C,[2],110 % of control
same,T/C,[3],96 % of control
CCCCCCCCSC1=C(Cl)C(=O)C(OC)=C(OC)C1=O,T/C,"dose: 1.5 mg/kg/injection, schedule: Q01DX009 (ip), vehicle: saline with Tween-80",95 % of control
same,T/C,"dose: 3.0 mg/kg/injection, schedule: Q01DX009 (ip), vehicle: saline with Tween-80",98 % of control
same,T/C,[4],94 % of control
same,T/C,[5],89 % of control and 98 % of control
same,T/C,[6],96 % of control and 104 % of control
same,T/C,[18],96 % of control and 102 % of control
CCCCC(CC)CCC(OC(=O)CSC#N)C(C)CC (stereo not drawn),T/C,[7],97 % of control
same,T/C,[8],91 % of control
same,T/C,[9],97 % of control
O=[N+]([O-])c1ccc2c(c1)Cc1cc(N(CBr)CBr)ccc1-2,T/C,"dose: 100.0 mg/kg/injection, schedule: Q04DX003 (ip), vehicle: saline",109 % of control
same,T/C,"dose: 200.0 mg/kg/injection, schedule: Q04DX003 (ip), vehicle: saline",107 % of control
same,T/C,"dose: 400.0 mg/kg/injection, schedule: Q04DX003 (ip), vehicle: saline",121 % of control
NC(=O)c1ncnc2c1ncn2C1OC(CO)C(O)C1O (stereo not drawn),T/C,"dose: 12.5 mg/kg/injection, schedule: Q01DX005 (ip), vehicle: water",104 % of control and 102 % of control
same,T/C,"dose: 25.0 mg/kg/injection, schedule: Q01DX005 (ip), vehicle: water",104 % of control and 97 % of control
same,T/C,"dose: 50.0 mg/kg/injection, schedule: Q01DX005 (ip), vehicle: water",106 % of control and 96 % of control
same,T/C,"dose: 100.0 mg/kg/injection, schedule: Q01DX005 (ip), vehicle: water",110 % of control and 100 % of control
same,T/C,"dose: 200.0 mg/kg/injection, schedule: Q01DX005 (ip), vehicle: water",110 % of control and 96 % of control
N#CC[CH2][Sn]([c]1ccccc1)([c]1ccccc1)[c]1ccccc1,T/C,[1],94 % of control
same,T/C,[2],91 % of control
same,T/C,[3],89 % of control
O=C1OCCCC1O (stereo not drawn),T/C,"dose: 150.0 mg/kg/injection, schedule: Q01DX001 (ip), vehicle: saline",97 % of control
COC(=O)CCN(c1ccccc1)c1ccc(C)cc1,T/C,[1],97 % of control
same,T/C,[2],97 % of control
same,T/C,[3],97 % of control
Cc1cn(C2CCC(CO)C2)c(=O)[nH]c1=O (stereo not drawn),T/C,"dose: 100.0 mg/kg/injection, schedule: Q01DX001 (ip), vehicle: carboxymethylcellulose (CMC)",95 % of control
same,T/C,"dose: 200.0 mg/kg/injection, schedule: Q01DX001 (ip), vehicle: carboxymethylcellulose (CMC)",95 % of control
same,T/C,"dose: 400.0 mg/kg/injection, schedule: Q01DX001 (ip), vehicle: carboxymethylcellulose (CMC)",103 % of control
COC1OC(COC(C)=O)C(OC(C)=O)C(NC(=O)N(CCCl)N=O)C1OC(C)=O (stereo not drawn),T/C,"dose: 13.0 mg/kg/injection, schedule: Q01DX001 (ip), vehicle: saline with Tween-80",240 % of control
same,T/C,"dose: 20.0 mg/kg/injection, schedule: Q01DX001 (ip), vehicle: saline with Tween-80",469 % of control
same,T/C,"dose: 30.0 mg/kg/injection, schedule: Q01DX001 (ip), vehicle: saline with Tween-80",535 % of control
same,T/C,"dose: 44.0 mg/kg/injection, schedule: Q01DX001 (ip), vehicle: saline with Tween-80",459 % of control
same,T/C,"dose: 67.0 mg/kg/injection, schedule: Q01DX001 (ip), vehicle: saline with Tween-80",245 % of control
Cc1cnnc(N(C)N)c1,T/C,"dose: 12.5 mg/kg/injection, schedule: Q04DX002 (ip), vehicle: saline",107 % of control
same,T/C,"dose: 25.0 mg/kg/injection, schedule: Q04DX002 (ip), vehicle: saline",114 % of control
same,T/C,"dose: 50.0 mg/kg/injection, schedule: Q04DX002 (ip), vehicle: saline",96 % of control
O=C(c1ccccc1)C1CC2(c3ccccc3)C(=O)C1(c1ccccc1)c1c2c2ccccc2c2ccccc12 (stereo not drawn),T/C,"dose: 50.0 mg/kg/injection, schedule: Q01DX001 (ip), vehicle: saline with Tween-80",90 % of control
same,T/C,[14],86 % of control and 94 % of control
same,T/C,[17],89 % of control
